Results on 19 substances are retold here after patent US20090298757A1, “OXYNTOMODULIN ANALOGUES AND THEIR EFFECTS ON FEEDING BEHAVIOUR” (Imperial Innovations Limited, priority 2005, published 2009).

Entries after “also recorded” stand apart in the source; their conditions may differ. Non-standard residues stand in square brackets, D forms with d. No end group written: not given here. *: point of attachment. Lauroyl = CCCCCCCCCCCC(=O)*

The assay deals with C57BL/6 mice. The assay is described as follows: Food intake in fasted mice after injection of peptide. The assay is classed as in vivo, mouse. The following applies: for Multiples of food inhibition Factor: Example 9, food intake during the first hour after injection, activity relative to oxm (1400 nmol/kg); for potency relative to oxyntomodulin: as mentioned in the examples section, times that of oxyntomodulin. How it is done:
Animals. All animal procedures were approved by the British Home Office Animals (Scientific Procedures) Act 1986 (Project License number 70/5516). Male C57BL/6 mice and male Wistar rats were maintained in individual cages under controlled temperature (21-23° C.) with ad libitum access to standard chow (RM1 diet, SDS Ltd, Witham, Essex, UK) and to water. The light cycle was 14 hours light and 10 hours dark with ‘dawn’ at 07:00, lights full on at 07:30, ‘dusk’ at 21:00 with lights off at 21:30. These times were fixed in the animal facility.
All animals were handled almost daily for on average nine days prior to the first study. During the acclimatization period, each animal received two saline injections at least two days apart in order to further acclimatize to the procedure on the study days.
Intra-peritoneal (IP) injections. IP injections were administered to mice via a 0.5 ml syringe with a 29-gauge needle (maximum injection volume 0.1 ml). Maximum volume administered IP was 0.1 ml.
Study protocol: C57BL/6 mice (20-35 g) were injected with the peptide under investigation following a 20-hour fast. Wistar rats were injected following a 24-hour fast. A pre-weighed quantity of chow was presented immediately after injection. The remaining food was measured at regular time intervals (e.g. 1, 2, 3, 4, 6, 8, 24 and 48 hours following injection) and food intake calculated.

Where [1] appears, read: Example 57, mice, 6 or 20 nmol/kg, vs saline.
Setting [2] is: Example 11, mice, 100 nmol/kg, vs oxm(xx15-24).
Where [3] appears, read: Example 1, fasted mice, 2700 nmol/kg by injection, intervals up to 32 h, vs saline and oxm.
Where [4] appears, read: Example 6, mice, 2700 nmol/kg, 0-8 h.
The mark [5] stands for this setting: Example 7, mice, 1000 nmol/kg, 0-24 h.

As to “Des-His-oxm: oxm analogue with substitution of the first amino acid (His 1) (SQGTFTSDYSKYLDSRRAQDFVQWLMNTKRNRNNIA; Oxyntomodulin; UniProt P01275 53-89, looked up, variant H1*)”, for the setting “Example 12, fasted mice, 2700 nmol/kg, 0-4 h”, the food intake entry is reported as “reduced food intake”. In addition, the “duration of action on food intake” value (Example 12, fasted mice, 2700 nmol/kg, vs native oxm) is on record as “more sustained action than native oxm”.
For the substance “CH3—CO—NH—CRH—CO-Ser Gln Gly Thr Phe Thr Ser Asp Tyr Ser Lys Tyr Leu Asp Ser Arg Arg Ala Gln Asp Phe Val Gln Trp Leu Met Asn Thr Lys Arg Asn Arg Asn Asn Ile Ala [Acetyloxyntomodulin]”, the “onset of anorectic effect” value (Example 14, mice, 1400 mmol/kg (so in the source)) is on record as “later acting than that of oxyntomodulin”.
Regarding “D-His Ser Asp Gly Thr Phe Thr Ser Asp Tyr Ser Lys Tyr Leu Glu Glu Glu Val Val Arg Leu Phe Ile Gln Trp Leu Lys Asn Gly Gly Pro Ser Lys Asn Asn Ile Ala Ala Ala Glu Glu Lys-Lauroyl ([dH]SDGTFTSDYSKYLEEEVVRLFIQWLKNGGPSKNNIAAAEEK(Lauroyl))”, the cumulative food intake entry under setting [1] is “markedly decreased cumulative food intake in comparison to the saline control”.
In the case of “His Ser Gln Gly Thr Phe Thr Ser Asp Tyr Ser Lys Tyr Leu Asp Ser Arg Arg Ala Gln Asp Phe Val Gln Trp Leu Lys Asn Gly Gly Pro Ser Ser Asn Asn Ile Ala (HSQGTFTSDYSKYLDSRRAQDFVQWLKNGGPSSNNIA; Oxm Analogue) [oxm(xx27-33)]”, the food intake result (Example 3, mice, 2700 nmol/kg, vs saline and oxm) is “increased and prolonged inhibition of food intake compared to both saline and oxm”. Further, the “Multiples of food inhibition Factor” value (mice) was determined as 7.
For “His Ser Gln Gly Thr Phe Thr Ser Asp Tyr Ser Lys Tyr Leu Asp Ser Arg Arg Ala Gln Asp Phe Val Gln Trp Leu Lys Asn Gly Gly Pro Asn Ser Asn Asn Ile Ala (HSQGTFTSDYSKYLDSRRAQDFVQWLKNGGPNSNNIA; Asn32-oxm(ex27-33))”, the food intake result (Example 31, mice, 300 nmol/kg, vs oxm(ex27-33)) is reported as “reduces the effect of oxm(ex27-33) on food intake”.
Turning to “HSQGTFTSDYSKYLEEEAIRLFIEWLMNTKRNRNNIA [Ile19-oxm(xx15-24)]”, the “potency on food intake” value (Example 11, mice, 100 nmol/kg, 0-24 h, vs oxm(xx15-24)) is listed as “equipotent with or slightly more potent than oxm(xx15-24)”. Also, the “onset and duration of activity on food intake” value (from here on “onset and duration of activity”) under setting [2] is on record as “slightly delayed action as compared with oxm (xx15-24)”; the “onset and duration of activity” value (Example 11, mice, 100 nmol/kg, vs oxm(xx15-24), listed as SEQ ID NO: 34) is reported as “delayed onset”.
As to “HSQGTFTSDYSKYLEEEAVRLFVQWLMNTKRNRNNIA [oxm(xx15-21)]”, the “potency relative to oxyntomodulin” value is recorded as 200 times. For the same substance, the food intake result under setting [3] is “greater and more prolonged appetite suppressant effect”. Further, the “Multiples of food inhibition Factor” value (mice) is 200.
Turning to “D-Ser Ala Asp Gly Thr Phe Thr Ser Asp Tyr Ser Lys Tyr Leu Glu Glu Glu Ala Val Arg Leu Phe Ile Gln Trp Leu Lys Asn Gly Gly Pro Ser Lys Asn Asn Ile Ala Ala Ala Glu Glu Lys-Lauroyl”, the cumulative food intake entry under setting [1] is on record as “markedly decreased cumulative food intake in comparison to the saline control”.
As to “HSQGTFTSDYSKYLEEEVVRLFIEWLMNTKRNRNNIA [18Val-oxm(xx15-24)]”, the “onset and duration of activity” value reads like this: under setting [2], “delayed onset of activity as compared with oxm(xx15-24) whilst the activity is more prolonged”; (Example 11, mice, 100 nmol/kg, vs oxm(xx15-24), listed as SEQ ID NO: 31) “delayed onset”.
Turning to “D-His Ala Gln Gly Thr Phe Thr Ser Asp Tyr Ser Lys Tyr Leu Asp Ser Arg Arg Ala Gln Asp Phe Val Gln Trp Leu Met Asn Thr Lys Arg Asn Arg Asn Asn Ile Ala (XAQGTFTSDYSKYLDSRRAQDFVQWLMNTKRNRNNIA; D-His at position 1; Oxm Analogue; D-His) [D-His-Ala2-oxm]”, the “Multiples of food inhibition Factor” value (mice) is 2.5. In addition, the minimum effective dose result (Example 43, mice, food intake) is “approximately 250 nmol/kg”. Moreover, the “effectiveness on food intake” value (Example 43, mice, various doses, vs oxm) was “more effective than oxm”.
As to “His Ser Gln Gly Thr Phe Thr Ser Asp Tyr Ser Lys Tyr Leu Glu Glu Glu Ala Val Arg Leu Phe Ile Glu Trp Leu Lys Asn Gly Gly Pro Ser Ser Gly Ala Pro Pro Pro Ser [oxm(xx15-39)]”, the food intake entry under setting [4] was “potent and long-lasting effect on food intake”; the food intake entry under setting [5] is “significantly inhibit feeding both compared to saline control and compared to the oxm-treated group”.
Regarding “D-His Ser Gln Gly Thr Phe Thr Ser Asp Tyr Ser Lys Tyr Leu Asp Ser Arg Arg Ala Gln Asp Phe Val Gln Trp Leu Lys Asn Gly Gly Pro Ser Ser Gly Ala Pro Pro Pro Ser ([dH]SQGTFTSDYSKYLDSRRAQDFVQWLKNGGPSSGAPPPS) [D-His-oxm26ex]”, the cumulative food intake entry (Example 13, mice, 1000 nmol/kg (FIG. 21d)) is on record as “reduction in food intake in comparison to oxm26ex”.
Regarding “His Ser Gln Gly Thr Phe Thr Ser Asp Tyr Ser Lys Tyr Leu Asp Ser Arg Arg Ala Gln Asp Phe Val Gln Trp Leu Arg Asn Gly Gly Pro Ser Ser Asn Asn Ile Ala (HSQGTFTSDYSKYLDSRRAQDFVQWLRNGGPSSNNIA; Arg27-oxm(ex27-33))”, the food intake entry was “reduction in food intake from 0 to 1 hours” (Example 17, mice, 300 nmol/kg) and “reduce the effect of oxm(ex27-33) on food intake” (Example 30, mice, 1400 or 300 nmol/kg, vs oxm(ex27-33)).
On to HSQGTFTSDYSKYLEEEVVRLFVQWLMNTKRNRNNIA, for which the food intake entry (Example 16, mice, 30 nmol/kg) is “reduction in food intake from 0 to 2 hours”.
For the substance “HSQGTFTSDYSKYLDSRRAQDFVQWLKNGGPSSGAPPPS [oxm26ex]”, the food intake result was “potent and long-lasting effect on food intake” under setting [4]; “significantly inhibit feeding both compared to saline control and compared to the oxm-treated group” under setting [5]. Also, the “duration of effect on food intake” value (Example 7, mice, 1000 nmol/kg, vs exendin) was “not as long-lasting as those of exendin”.
Consider “Ala2-oxm: oxm with Ser at residue 2 substituted by Ala (HAQGTFTSDYSKYLDSRRAQDFVQWLMNTKRNRNNIA; Oxyntomodulin; UniProt P01275 53-89, looked up, variant S2A)”, for which, under “Example 5, fasted mice, 2700 nmol/kg, 0-4 h, vs saline and oxm”, the food intake result is reported as “does NOT significantly reduce food intake compared to saline”.
Take “HSQGTFTSDYSKYLEEEAVRLFIEWLMNTKRNRNNIA [oxm(xx15-24)]”: the “potency relative to oxyntomodulin” value came out at 400 times. For the same substance, the food intake result under setting [3] is “greater and more prolonged appetite suppressant effect; also recorded: more potent effect on feeding than oxm”. Further, where the note is “Example 2, mice, 300 nmol/kg, first 8 hours post-injection (FIG. 4c)”, the cumulative food intake result is listed as “reduces food intake only slightly less than exendin over the first 8 hours post-injection”. Also, the “Multiples of food inhibition Factor” value (mice) is given as 400. Also, the food intake entry (Example 27, mice, 100 nmol/kg) is recorded as “most effective”.
As for “D-His Ala Gln Gly Thr Phe Thr Ser Asp Tyr Ser Lys Tyr Leu Glu Glu Glu Ala Val Arg Leu Phe Ile Glu Trp Leu Lys Asn Gly Gly Pro Ser Ser Asn Asn Ile Ala ([dH]AQGTFTSDYSKYLEEEAVRLFIEWLKNGGPSSNNIA) [D-His1-Ala2-oxm(xx15-24)(xx27-33)]”, the “potency relative to oxyntomodulin” value is given as 1-4000 times. Moreover, the “duration of effect on food intake” value (Example 8, mice, 100 mmol/kg (so in the source)) is given as “especially long-acting”. Besides, for the setting “mice”, the “Multiples of food inhibition Factor” value is on record as 1000-4000.
In the case of “HSQGTFTSDYSKYLEEEAAQDFVQWLMNTKRNRNNIA [oxm(xx15-18)]”, the food intake result under setting [3] was “increased and prolonged inhibition of food intake compared to both saline and oxm”.
